Measurements reported in article PMC11528321 (RSC Medicinal Chemistry, 2024).
“Also recorded” adds a separate entry of the source.

Key:
OE33 and FLO-1 cells = assay: Antiproliferative screening, both OC cell lines together; assay type: cell-based, human; conditions: for antiproliferative activity (in words): dose range 0.003-30 μM
AuroraA = target: T1, AuroraA (Homo sapiens, UniProt O14965); assay: 33PanQinase kinome profiling; assay type: biochemical; conditions: mean, respect to DMSO control
T1 sequence (O14965 1-403): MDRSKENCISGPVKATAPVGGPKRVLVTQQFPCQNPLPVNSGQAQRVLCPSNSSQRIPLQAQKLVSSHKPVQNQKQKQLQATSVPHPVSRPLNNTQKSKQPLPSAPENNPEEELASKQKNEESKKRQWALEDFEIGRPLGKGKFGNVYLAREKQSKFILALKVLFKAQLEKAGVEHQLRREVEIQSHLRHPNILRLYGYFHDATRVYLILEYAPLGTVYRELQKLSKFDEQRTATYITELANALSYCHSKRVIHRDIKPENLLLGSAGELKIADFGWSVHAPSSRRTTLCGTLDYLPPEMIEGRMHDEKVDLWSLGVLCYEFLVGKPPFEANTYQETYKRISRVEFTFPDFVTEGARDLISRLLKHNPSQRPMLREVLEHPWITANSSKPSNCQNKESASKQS

AXL = target: T2, AXL (Homo sapiens, UniProt P30530); assay: 33PanQinase kinome profiling; assay type: biochemical; conditions: 1 μM
T2 sequence (P30530 26-894): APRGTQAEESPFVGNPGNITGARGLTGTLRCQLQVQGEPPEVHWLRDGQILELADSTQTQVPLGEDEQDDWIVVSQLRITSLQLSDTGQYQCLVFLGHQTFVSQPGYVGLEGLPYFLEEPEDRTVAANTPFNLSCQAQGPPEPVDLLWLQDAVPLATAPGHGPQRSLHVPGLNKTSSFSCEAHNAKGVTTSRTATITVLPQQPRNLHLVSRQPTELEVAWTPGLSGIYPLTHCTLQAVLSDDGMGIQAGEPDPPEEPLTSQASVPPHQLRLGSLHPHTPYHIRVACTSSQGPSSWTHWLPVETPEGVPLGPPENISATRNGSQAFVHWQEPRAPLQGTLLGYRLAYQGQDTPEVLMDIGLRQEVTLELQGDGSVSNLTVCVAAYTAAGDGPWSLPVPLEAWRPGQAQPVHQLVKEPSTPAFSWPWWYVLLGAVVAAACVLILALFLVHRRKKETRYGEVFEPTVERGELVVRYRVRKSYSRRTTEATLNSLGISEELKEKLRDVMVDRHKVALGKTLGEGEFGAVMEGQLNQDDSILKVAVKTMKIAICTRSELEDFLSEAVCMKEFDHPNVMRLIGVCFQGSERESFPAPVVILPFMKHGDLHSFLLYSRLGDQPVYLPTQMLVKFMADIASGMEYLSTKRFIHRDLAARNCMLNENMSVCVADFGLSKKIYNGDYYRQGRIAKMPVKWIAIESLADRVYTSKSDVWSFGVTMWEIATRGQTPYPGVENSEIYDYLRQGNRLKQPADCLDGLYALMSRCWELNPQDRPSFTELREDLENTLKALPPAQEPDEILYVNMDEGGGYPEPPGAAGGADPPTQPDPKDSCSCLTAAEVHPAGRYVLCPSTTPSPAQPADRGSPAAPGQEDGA

FLT3 = target: T3, FLT3 (Homo sapiens, UniProt P36888); assay: 33PanQinase kinome profiling; assay type: biochemical; conditions: mean, respect to DMSO control
T3 sequence (P36888 564-993 limits assumed): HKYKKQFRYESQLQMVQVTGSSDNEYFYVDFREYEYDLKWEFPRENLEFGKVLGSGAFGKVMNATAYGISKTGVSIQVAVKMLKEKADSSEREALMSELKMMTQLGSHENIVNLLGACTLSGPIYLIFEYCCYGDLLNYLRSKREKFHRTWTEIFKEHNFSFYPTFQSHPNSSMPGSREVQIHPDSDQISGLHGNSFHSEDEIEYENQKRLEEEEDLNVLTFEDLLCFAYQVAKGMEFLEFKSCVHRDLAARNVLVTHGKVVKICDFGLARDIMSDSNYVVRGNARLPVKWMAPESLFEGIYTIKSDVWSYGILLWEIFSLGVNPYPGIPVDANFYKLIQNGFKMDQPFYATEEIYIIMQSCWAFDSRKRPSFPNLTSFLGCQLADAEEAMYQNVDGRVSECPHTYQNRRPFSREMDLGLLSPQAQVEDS

RET = RET (Homo sapiens, UniProt P07949); assay: 33PanQinase kinome profiling; assay type: biochemical; conditions: mean, respect to DMSO control
Sequence of RET (P07949 29-1114): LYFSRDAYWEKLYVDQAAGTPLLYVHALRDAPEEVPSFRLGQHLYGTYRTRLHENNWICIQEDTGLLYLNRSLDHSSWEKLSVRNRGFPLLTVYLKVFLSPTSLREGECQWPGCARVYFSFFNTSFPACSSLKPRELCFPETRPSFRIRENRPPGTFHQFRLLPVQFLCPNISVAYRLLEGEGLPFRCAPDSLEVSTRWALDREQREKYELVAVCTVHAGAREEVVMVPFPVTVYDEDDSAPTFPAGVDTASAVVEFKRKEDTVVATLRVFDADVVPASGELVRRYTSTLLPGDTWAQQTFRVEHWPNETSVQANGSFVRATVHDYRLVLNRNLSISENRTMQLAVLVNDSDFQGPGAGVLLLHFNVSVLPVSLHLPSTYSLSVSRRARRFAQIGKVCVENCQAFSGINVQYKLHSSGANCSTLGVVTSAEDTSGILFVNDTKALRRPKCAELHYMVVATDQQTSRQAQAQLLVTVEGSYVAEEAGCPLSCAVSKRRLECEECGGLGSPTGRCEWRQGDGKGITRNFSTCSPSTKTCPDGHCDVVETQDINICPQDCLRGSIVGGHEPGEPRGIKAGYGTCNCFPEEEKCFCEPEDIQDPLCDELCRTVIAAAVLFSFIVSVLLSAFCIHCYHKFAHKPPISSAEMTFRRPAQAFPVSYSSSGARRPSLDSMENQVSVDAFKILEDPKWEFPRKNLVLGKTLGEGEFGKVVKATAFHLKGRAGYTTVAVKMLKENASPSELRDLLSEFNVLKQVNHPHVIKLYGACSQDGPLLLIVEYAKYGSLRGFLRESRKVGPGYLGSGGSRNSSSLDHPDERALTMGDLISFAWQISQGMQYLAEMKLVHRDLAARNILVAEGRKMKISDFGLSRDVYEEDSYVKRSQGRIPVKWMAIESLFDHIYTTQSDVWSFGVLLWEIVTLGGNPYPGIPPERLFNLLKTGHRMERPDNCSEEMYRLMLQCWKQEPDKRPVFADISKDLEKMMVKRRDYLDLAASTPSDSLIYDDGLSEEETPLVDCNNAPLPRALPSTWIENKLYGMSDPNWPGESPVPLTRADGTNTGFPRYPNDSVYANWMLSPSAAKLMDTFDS

OE33 cells = assay: Cell cycle assay; assay type: cell-based, human; conditions: 3 μM, 72 h, vs DMSO control
FLO-1 cells = assay: Cell cycle assay; assay type: cell-based, human; conditions: 3 μM, 72 h, vs DMSO control
[1] = target: T4, Nano-Luc-Aurora A (fusion vector) in HEK293 (Homo sapiens, UniProt O14965); assay: NanoBRET target engagement assay; assay type: cell-based; conditions: HEK293, 1 h treatment, 0.001-100 µM
T4 sequence (O14965 1-403): T1 sequence (O14965 1-403)

## Nc1ncnc2c1c(/C=C/C(=O)O)nn2CC1CCCC1 [compound 10]
OE33 and FLO-1 cells
  antiproliferative activity (in words): lack of activity

## COC1CCN(C(=O)/C=C/c2nn(CC3CCCC3)c3ncnc(N)c23)CC1 [1A7]
OE33 and FLO-1 cells
  antiproliferative activity (in words): completely inactive

## CNc1ncc2c(/C=C/C(=O)N3CCC(OC)CC3)nn(Cc3cccc(C(F)(F)F)c3)c2n1 [2D7, (2E)-1-(4-Methoxypiperidin-1-yl)-3-[6-(methylamino)-1-{[3-(trifluoromethyl)phenyl]methyl}-1H-pyrazolo[3,4-d]pyrimidin-3-yl]prop-2-en-1-one]
AuroraA
  % Inhibition [1uM]: > 50%
AXL
  inhibition of AXL (in words): minimal to no inhibition
FLT3
  % Inhibition [1uM]: minimal to no inhibition
RET
  % Inhibition [1uM]: minimal to no inhibition
OE33 cells
  effect on the cell cycle (in words): rapid arrest of cells in the G2/M phase; also recorded: slight increase in the number of cells in the sub-G1 phase
FLO-1 cells
  effect on the cell cycle (in words): enrichment of cells in the S and G2/M phases
[1]
  AURKA target engagement in cells (in words): direct dose-dependent binding

## CNc1ncc2c(/C=C/C(=O)O)nn(CC3CCCC3)c2n1 [compound 12]
OE33 and FLO-1 cells
  antiproliferative activity (in words): lack of activity

## CNc1ncc2c(/C=C/C(=O)N3CCC4(CC3)OCCO4)nn(Cc3cccc(C)c3)c2n1 [2C4]
OE33 and FLO-1 cells; compared with 2B10
  fold increase in antiproliferative potency over 2B10: 2 fold
